Data as given in ChEMBL document CHEMBL1130436, “Synthesis and opioid activity of conformationally constrained dynorphin A analogues. 2. Conformational constraint in the "address" sequence” (J Med Chem, 1997).

Tests used:
[1] = molecular target: T1, Kappa-type opioid receptor (Cavia porcellus, UniProt P41144); assay: Binding affinity of compound was measured on Opioid receptor kappa 1 by competitive inhibition of radioligand [3H]diprenorphine using cloned receptors transiently expressed on COS-7 (monkey kidney) cells; assay type: cell-based
Mu-type opioid receptor [2] = molecular target: T2, Mu-type opioid receptor (Cavia porcellus, UniProt P97266); assay: Binding affinity of compound was measured on Opioid receptor mu 1 by competitive inhibition of radioligand [3H]DAMGO using cloned receptors transiently expressed on COS-7 (monkey kidney) cells; assay type: cell-based
Cavia porcellus = organism: Cavia porcellus; assay: Opioid activity in guinea pig ileum; assay type: functional
[3] = molecular target: T3, Delta-type opioid receptor (Homo sapiens, UniProt P41143); assay: Binding affinity of compound was measured on Opioid receptor delta 1 by competitive inhibition of radioligand [3H]DPDPE using cloned receptors transiently expressed on COS-7 (monkey kidney) cells; assay type: cell-based
[4] = molecular target: T3, Delta-type opioid receptor; assay: Binding affinity to Opioid receptor delta 1 by competitive inhibition of radioligand [3H]DPDPE using cloned receptors transiently expressed on CHO cells; assay type: cell-based, Cavia porcellus
[5] = molecular target: T1, Kappa-type opioid receptor; assay: Binding affinity to Opioid receptor kappa 1 by competitive inhibition of radioligand [3H]diprenorphine using cloned receptors transiently expressed on CHO cells; assay type: cell-based
Mu-type opioid receptor [6] = molecular target: T2, Mu-type opioid receptor; assay: Binding affinity to Opioid receptor mu 1 by competitive inhibition of radioligand [3H]DAMGO using cloned receptors transiently expressed on CHO cells; assay type: cell-based

SMILES: CC[C@H](C)[C@H](NC(=O)[C@H](CCCNC(=N)N)NC(=O)[C@@H]1CCCNC(=O)C[C@@H](NC(=O)CNC(=O)[C@@H](N)Cc2ccc(O)cc2)C(=O)N[C@@H](Cc2ccccc2)C(=O)N[C@@H](CC(C)C)C(=O)N1)C(=O)N[C@@H](CCCNC(=N)N)C(=O)N1CCC[C@H]1C(=O)N[C@@H](CCCCN)C(=O)N[C@@H](CC(C)C)C(=O)N[C@@H](CCCCN)C(N)=O
- Ki [1]: 200 nM
- Ki (Mu-type opioid receptor [2]): 320 nM
- IC50 (Cavia porcellus): 2700 nM
- Ki [3]: 320 nM

SMILES: CC[C@H](C)[C@H](NC(=O)[C@H](CCCNC(=N)N)NC(=O)[C@H](CCCNC(=N)N)NC(=O)[C@H](CC(C)C)NC(=O)[C@H](Cc1ccccc1)NC(=O)[C@@H](CC(=O)O)NC(=O)CNC(=O)[C@@H](N)Cc1ccc(O)cc1)C(=O)N[C@@H](CCCNC(=N)N)C(=O)N1CCC[C@H]1C(=O)N[C@@H](CCCCN)C(=O)N[C@@H](CC(C)C)C(=O)N[C@@H](CCCCN)C(N)=O
- Ki [4]: 430 nM
- Ki [5]: 28 nM
- IC50 (Cavia porcellus): 440 nM
- Ki (Mu-type opioid receptor [6]): 180 nM

SMILES: CC[C@H](C)[C@H](NC(=O)[C@H](CCCNC(=N)N)NC(=O)[C@@H]1CNC(=O)C[C@@H](NC(=O)CNC(=O)[C@@H](N)Cc2ccc(O)cc2)C(=O)N[C@@H](Cc2ccccc2)C(=O)N[C@@H](CC(C)C)C(=O)N1)C(=O)N[C@@H](CCCNC(=N)N)C(=O)N1CCC[C@H]1C(=O)N[C@@H](CCCCN)C(=O)N[C@@H](CC(C)C)C(=O)N[C@@H](CCCCN)C(N)=O
- Ki [1]: 480 nM
- Ki (Mu-type opioid receptor [2]): 910 nM
- IC50 (Cavia porcellus): 1000 nM
- Ki [3]: 2800 nM

SMILES: CC[C@H](C)[C@H](NC(=O)[C@H](CCCNC(=N)N)NC(=O)[C@H](CN)NC(=O)[C@H](CC(C)C)NC(=O)[C@H](Cc1ccccc1)NC(=O)[C@@H](CC(=O)O)NC(=O)CNC(=O)[C@@H](N)Cc1ccc(O)cc1)C(=O)N[C@@H](CCCNC(=N)N)C(=O)N1CCC[C@H]1C(=O)N[C@@H](CCCCN)C(=O)N[C@@H](CC(C)C)C(=O)N[C@@H](CCCCN)C(N)=O
- Ki ([1]; cos-7): 300 nM
- Ki (Mu-type opioid receptor [2]; cos-7): 100 nM
- IC50 (Cavia porcellus): 2800 nM
- Ki ([3]; cos-7): 1300 nM

SMILES: CC[C@H](C)[C@@H]1NC(=O)[C@H](CCCNC(=N)N)NC(=O)[C@H](NC(=O)[C@H](CC(C)C)NC(=O)[C@H](Cc2ccccc2)NC(=O)CNC(=O)CNC(=O)[C@@H](N)Cc2ccc(O)cc2)CC(=O)NCC[C@@H](C(=O)N2CCC[C@H]2C(=O)N[C@@H](CCCCN)C(=O)N[C@@H](CC(C)C)C(=O)N[C@@H](CCCCN)C(N)=O)NC1=O
- Ki [4]: 180 nM
- Ki [5]: 2.5 nM
- Ki (Mu-type opioid receptor [6]): 4.8 nM

SMILES: CC[C@H](C)[C@@H]1NC(=O)[C@H](CCCN=C(N)N)NC(=O)[C@H](NC(=O)[C@H](CC(C)C)NC(=O)[C@H](Cc2ccccc2)NC(=O)CNC(=O)CNC(=O)[C@@H](N)Cc2ccc(O)cc2)CC(=O)N[C@H](C(=O)N2CCC[C@H]2C(=O)N[C@@H](CCCCN)C(=O)N[C@@H](CC(C)C)C(=O)N[C@@H](CCCCN)C(=O)O)CCNC1=O
- IC50 (Cavia porcellus): 22 nM

SMILES: CC[C@H](C)[C@@H]1NC(=O)[C@H](CCCN=C(N)N)NC(=O)[C@H](NC(=O)[C@H](CC(C)C)NC(=O)[C@H](Cc2ccccc2)NC(=O)CNC(=O)CNC(=O)[C@@H](N)Cc2ccc(O)cc2)CC(=O)N[C@H](C(=O)N2CCC[C@H]2C(=O)N[C@@H](CCCCN)C(=O)N[C@@H](CC(C)C)C(=O)N[C@@H](CCCCN)C(=O)O)CNC1=O
- IC50 (Cavia porcellus): 46 nM

SMILES: CC[C@H](C)[C@@H]1NC(=O)[C@H](CCCNC(=N)N)NC(=O)[C@H](NC(=O)[C@H](CC(C)C)NC(=O)[C@H](Cc2ccccc2)NC(=O)CNC(=O)CNC(=O)[C@@H](N)Cc2ccc(O)cc2)CC(=O)NC[C@@H](C(=O)N2CCC[C@H]2C(=O)N[C@@H](CCCCN)C(=O)N[C@@H](CC(C)C)C(=O)N[C@@H](CCCCN)C(N)=O)NC1=O
- Ki ([4]; cho): 48 nM
- Ki ([5]; cho): 2.6 nM
- Ki (Mu-type opioid receptor [6]; cho): 4.4 nM

SMILES: CC(C)C[C@H](NC(=O)[C@H](CCCCN)NC(=O)[C@@H]1CCCN1C(=O)[C@H](CCCNC(=N)N)NC(=O)[C@@H]1CCNC(=O)C[C@@H](NC(=O)[C@H](Cc2ccccc2)NC(=O)CNC(=O)CNC(=O)[C@@H](N)Cc2ccc(O)cc2)C(=O)N[C@@H](CCCNC(=N)N)C(=O)N[C@@H](CCCNC(=N)N)C(=O)N1)C(=O)N[C@@H](CCCCN)C(N)=O
- Ki [4]: 4100 nM
- Ki [5]: 14 nM
- Ki (Mu-type opioid receptor [6]): 40 nM

SMILES: CC(C)C[C@H](NC(=O)[C@H](CCCCN)NC(=O)[C@@H]1CCCN1C(=O)[C@H](CCCN=C(N)N)NC(=O)[C@@H]1CCNC(=O)[C@H](CCCN=C(N)N)NC(=O)[C@H](CCCN=C(N)N)NC(=O)[C@H](NC(=O)[C@H](Cc2ccccc2)NC(=O)CNC(=O)CNC(=O)[C@@H](N)Cc2ccc(O)cc2)CC(=O)N1)C(=O)N[C@@H](CCCCN)C(=O)O
- IC50 (Cavia porcellus): 1300 nM

SMILES: CC[C@H](C)[C@H](NC(=O)[C@H](CCCNC(=N)N)NC(=O)[C@H](CCCNC(=N)N)NC(=O)[C@@H](CC(=O)O)NC(=O)[C@H](Cc1ccccc1)NC(=O)CNC(=O)CNC(=O)[C@@H](N)Cc1ccc(O)cc1)C(=O)N[C@@H](CCCNC(=N)N)C(=O)N1CCC[C@H]1C(=O)N[C@@H](CCCCN)C(=O)N[C@@H](CC(C)C)C(=O)N[C@@H](CCCCN)C(N)=O
- Ki [4]: 1300 nM
- Ki [5]: 58 nM
- Ki (Mu-type opioid receptor [6]): 6.1 nM

SMILES: CC[C@H](C)[C@H](NC(=O)[C@H](CCCNC(=N)N)NC(=O)[C@H](CCCNC(=N)N)NC(=O)[C@@H](CC(=O)O)NC(=O)[C@H](Cc1ccccc1)NC(=O)CNC(=O)CNC(=O)[C@@H](N)Cc1ccc(O)cc1)C(=O)N[C@@H](CCCNC(=N)N)C(=O)N1CCC[C@H]1C(=O)N[C@@H](CCCCN)C(=O)N[C@@H](CC(C)C)C(=O)N[C@@H](CCCCN)C(=O)O
- IC50 (Cavia porcellus): 1400 nM

SMILES: CC(C)C[C@H](NC(=O)[C@H](CCCCN)NC(=O)[C@@H]1CCCN1C(=O)[C@H](CCCNC(=N)N)NC(=O)[C@H](CN)NC(=O)[C@H](CCCNC(=N)N)NC(=O)[C@H](CCCNC(=N)N)NC(=O)[C@@H](CC(=O)O)NC(=O)[C@H](Cc1ccccc1)NC(=O)CNC(=O)CNC(=O)[C@@H](N)Cc1ccc(O)cc1)C(=O)N[C@@H](CCCCN)C(N)=O
- Ki [4]: 1600 nM
- Ki [5]: 20 nM
- Ki (Mu-type opioid receptor [6]): 8.3 nM

SMILES: CC[C@H](C)[C@H](NC(=O)[C@H](CCCNC(=N)N)NC(=O)[C@@H](CC(=O)O)NC(=O)[C@H](CC(C)C)NC(=O)[C@H](Cc1ccccc1)NC(=O)CNC(=O)CNC(=O)[C@@H](N)Cc1ccc(O)cc1)C(=O)N[C@@H](CN)C(=O)N1CCC[C@H]1C(=O)N[C@@H](CCCCN)C(=O)N[C@@H](CC(C)C)C(=O)N[C@@H](CCCCN)C(N)=O
- Ki ([4]; cho): 8.2 nM
- Ki ([5]; cho): 12 nM
- IC50 (Cavia porcellus): 74 nM
- Ki (Mu-type opioid receptor [6]; cho): 1.5 nM

SMILES: CC[C@H](C)[C@H](NC(=O)[C@H](CCCNC(=N)N)NC(=O)[C@@H](CC(=O)O)NC(=O)[C@H](CC(C)C)NC(=O)[C@H](Cc1ccccc1)NC(=O)CNC(=O)CNC(=O)[C@@H](N)Cc1ccc(O)cc1)C(=O)N[C@@H](CCCNC(=N)N)C(=O)N1CCC[C@H]1C(=O)N[C@@H](CCCCN)C(=O)N[C@@H](CC(C)C)C(=O)N[C@@H](CCCCN)C(N)=O
- Ki [4]: 22 nM
- Ki [5]: 8 nM
- IC50 (Cavia porcellus): 29 nM
- Ki (Mu-type opioid receptor [6]): 1.2 nM

SMILES: CC(C)C[C@H](NC(=O)[C@H](CCCCN)NC(=O)[C@@H]1CCCN1C(=O)[C@H](CCCNC(=N)N)NC(=O)[C@@H]1CNC(=O)C[C@@H](NC(=O)[C@H](Cc2ccccc2)NC(=O)CNC(=O)CNC(=O)[C@@H](N)Cc2ccc(O)cc2)C(=O)N[C@@H](CCCNC(=N)N)C(=O)N[C@@H](CCCNC(=N)N)C(=O)N1)C(=O)N[C@@H](CCCCN)C(N)=O
- Ki [4]: 3300 nM
- Ki [5]: 8 nM
- Ki (Mu-type opioid receptor [6]): 75 nM

SMILES: CC(C)C[C@H](NC(=O)[C@H](CCCCN)NC(=O)[C@@H]1CCCN1C(=O)[C@H](CCCN=C(N)N)NC(=O)[C@@H]1CNC(=O)[C@H](CCCN=C(N)N)NC(=O)[C@H](CCCN=C(N)N)NC(=O)[C@H](NC(=O)[C@H](Cc2ccccc2)NC(=O)CNC(=O)CNC(=O)[C@@H](N)Cc2ccc(O)cc2)CC(=O)N1)C(=O)N[C@@H](CCCCN)C(=O)O
- IC50 (Cavia porcellus): > 5000 nM

SMILES: CC[C@H](C)[C@@H]1NC(=O)[C@H](CCCNC(=N)N)NC(=O)[C@H](NC(=O)[C@H](CC(C)C)NC(=O)[C@H](Cc2ccccc2)NC(=O)CNC(=O)CNC(=O)[C@@H](N)Cc2ccc(O)cc2)CC(=O)NCCC[C@@H](C(=O)N2CCC[C@H]2C(=O)N[C@@H](CCCCN)C(=O)N[C@@H](CC(C)C)C(=O)N[C@@H](CCCCN)C(N)=O)NC1=O
- Ki [4]: 28 nM
- Ki [5]: 1.5 nM
- IC50 (Cavia porcellus): 6.8 nM
- Ki (Mu-type opioid receptor [6]): 3.2 nM

SMILES: CC(C)C[C@H](NC(=O)[C@H](CCCCN)NC(=O)[C@@H]1CCCN1C(=O)[C@H](CCCN=C(N)N)NC(=O)[C@@H]1CCCNC(=O)[C@H](CCCN=C(N)N)NC(=O)[C@H](CCCN=C(N)N)NC(=O)[C@H](NC(=O)[C@H](Cc2ccccc2)NC(=O)CNC(=O)CNC(=O)[C@@H](N)Cc2ccc(O)cc2)CC(=O)N1)C(=O)N[C@@H](CCCCN)C(=O)O
- IC50 (Cavia porcellus): 530 nM

SMILES: CC(C)C[C@H](NC(=O)[C@H](CCCCN)NC(=O)[C@@H]1CCCN1C(=O)[C@H](CCCNC(=N)N)NC(=O)[C@@H]1CCCNC(=O)C[C@@H](NC(=O)[C@H](Cc2ccccc2)NC(=O)CNC(=O)CNC(=O)[C@@H](N)Cc2ccc(O)cc2)C(=O)N[C@@H](CCCNC(=N)N)C(=O)N[C@@H](CCCNC(=N)N)C(=O)N1)C(=O)N[C@@H](CCCCN)C(N)=O
- Ki [4]: 1900 nM
- Ki [5]: 12 nM
- Ki (Mu-type opioid receptor [6]): 62 nM

SMILES: CC[C@H](C)[C@H](NC(=O)[C@H](CCCNC(=N)N)NC(=O)[C@H](CCCNC(=N)N)NC(=O)[C@H](CC(C)C)NC(=O)[C@H](Cc1ccccc1)NC(=O)CNC(=O)CNC(=O)[C@@H](N)Cc1ccc(O)cc1)C(=O)N[C@@H](CCCNC(=N)N)C(=O)N1CCC[C@H]1C(=O)N[C@@H](CCCCN)C(=O)N[C@@H](CC(C)C)C(=O)N[C@@H](CCCCN)C(=O)O [ANALOG OF DYNORPHIN A]
- Ki [4]: 28.4 nM
- Ki [5]: 0.31 nM
- IC50 (Cavia porcellus): 0.19 nM
- Ki (Mu-type opioid receptor [6]): 0.92 nM
